The record followed here is patent publication US6057340A, “Oxazole derivatives as serotonin-1A receptor agonists” (American Home Products Corporation, priority 1999, dated 2000).

pKi: −log10 of the molar value.

In general, pKi refers to the Ki on a negative log10 scale, so that one unit is a factor of ten.

For the experiment, the target named is T1, human 5HT1A receptor (Homo sapiens, UniProt P08908).
T1 construct: expressed in transfected cells
T1 sequence (P08908 1-422): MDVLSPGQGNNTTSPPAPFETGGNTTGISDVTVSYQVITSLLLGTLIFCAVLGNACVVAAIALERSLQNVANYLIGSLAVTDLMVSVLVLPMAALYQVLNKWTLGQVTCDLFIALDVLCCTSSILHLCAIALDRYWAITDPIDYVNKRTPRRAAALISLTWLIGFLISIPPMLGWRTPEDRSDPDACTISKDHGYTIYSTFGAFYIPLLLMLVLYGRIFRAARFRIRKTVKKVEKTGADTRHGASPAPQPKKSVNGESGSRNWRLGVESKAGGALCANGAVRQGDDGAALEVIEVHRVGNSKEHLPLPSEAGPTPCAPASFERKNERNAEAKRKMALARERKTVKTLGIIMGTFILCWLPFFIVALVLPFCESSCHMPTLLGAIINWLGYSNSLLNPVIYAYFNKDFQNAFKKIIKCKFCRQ
Put plainly: displacement of [^3 H] 8-OH-DPAT binding in CHO cells stably transfected with human 5HT1A receptor. The following applies: final ligand concentration 1.5 nM, 30 minute incubation at room temperature. Here is the method: The compounds of this invention are 5-HT1A agonists. Affinity for the serotonin 5-HT1A receptor was established in a standard pharmacological test procedure which measures the compound's ability to displace [^3 H] 8-OH-DPAT binding in CHO cells stably transfected with human 5HT1A receptor. Stably transfected CHO cells are grown in DMEM containing 10% heat inactivated FBS and non-essential amino acids. Cells are scraped off the plate, transferred to centrifuge tubes, and washed twice by centrifugation (2000 rpm for 10 min., 4° C.) in buffer (50 mM Tris pH 7.5). The resulting pellets are aliquoted and placed at -80° C. On the day of assay, the cells are thawed on ice and resuspended in buffer. The binding assay is performed in a 96 well microtiter plate in a total volume of 250 μL. Non-specific binding is determined in the presence of […], final ligand concentration is 1.5 nM. Following a 30 minute incubation at room temperature, the reaction is terminated by the addition of ice cold buffer and rapid filtration through a GF/B filter presoaked for 30 minutes in 0.5% PEI. Compounds are initially tested in a single point assay to determine percent inhibition at […], and Ki values are determined for the active compounds.

In turn, `COc1ccccc1C1CCN(Cc2oc(C3CCCCC3)nc2Cc2ccccc2)CC1` [Example 9, 1-(4-Benzyl-2-cyclohexyl-oxazol-5-ylmethyl)-4-(2-methoxy-phenyl)-piperidine] had a pKi of 8.36.
